Experimental data: patent US10407431B2, “Compounds and compositions as toll-like receptor 7 agonists” (NOVARTIS AG, priority 2014, dated 2019)

Each compound was assayed against human TLR7 (Homo sapiens (Human), UniProt Q9NYK1) (assay: Reporter Gene Assay (HEK293 stably transfected with human TLR7 and NF-kB-driven luciferase reporter)). Settings: HEK293 cells stably transfected with human TLR7 and pNifty-Luciferase; 7 hours incubation; EC50 relative to the activity of resiquimod set to 100%.
Type: cell-based
Protocol: As a control assay, normal Hek293 transfected with pNifty-Luc were used. […] Bright-Glo™ Luciferase assay buffer and substrate were supplied by Promega #E263B and #E264B (assay substrate and buffer respectively). 384 well clear-bottom plates were supplied by Greiner bio-one (#789163-G) and were custom bar-coded plates.
Cells were plated at 25,000 cells/well in 384-well plates in a final volume of 50 μl of media. Cells were allowed to adhere to the plates after overnight (18 hours) culture at 37° C. and 5% CO2. Serially diluted experimental and positive control compounds were then dispensed to each well and incubated for 7 hours at 37° C. and 5% CO2. Cells stimulated with DMSO alone also serve as negative controls. After the incubation, 30 μl of the pre-mix assay buffer and substrate buffer were added to each well according to manufacturer's instructions. The luminescence signal was read on a CLIPR machine with an integration time of 20 seconds per plate.

human TLR7, sequence (Q9NYK1 27-1049): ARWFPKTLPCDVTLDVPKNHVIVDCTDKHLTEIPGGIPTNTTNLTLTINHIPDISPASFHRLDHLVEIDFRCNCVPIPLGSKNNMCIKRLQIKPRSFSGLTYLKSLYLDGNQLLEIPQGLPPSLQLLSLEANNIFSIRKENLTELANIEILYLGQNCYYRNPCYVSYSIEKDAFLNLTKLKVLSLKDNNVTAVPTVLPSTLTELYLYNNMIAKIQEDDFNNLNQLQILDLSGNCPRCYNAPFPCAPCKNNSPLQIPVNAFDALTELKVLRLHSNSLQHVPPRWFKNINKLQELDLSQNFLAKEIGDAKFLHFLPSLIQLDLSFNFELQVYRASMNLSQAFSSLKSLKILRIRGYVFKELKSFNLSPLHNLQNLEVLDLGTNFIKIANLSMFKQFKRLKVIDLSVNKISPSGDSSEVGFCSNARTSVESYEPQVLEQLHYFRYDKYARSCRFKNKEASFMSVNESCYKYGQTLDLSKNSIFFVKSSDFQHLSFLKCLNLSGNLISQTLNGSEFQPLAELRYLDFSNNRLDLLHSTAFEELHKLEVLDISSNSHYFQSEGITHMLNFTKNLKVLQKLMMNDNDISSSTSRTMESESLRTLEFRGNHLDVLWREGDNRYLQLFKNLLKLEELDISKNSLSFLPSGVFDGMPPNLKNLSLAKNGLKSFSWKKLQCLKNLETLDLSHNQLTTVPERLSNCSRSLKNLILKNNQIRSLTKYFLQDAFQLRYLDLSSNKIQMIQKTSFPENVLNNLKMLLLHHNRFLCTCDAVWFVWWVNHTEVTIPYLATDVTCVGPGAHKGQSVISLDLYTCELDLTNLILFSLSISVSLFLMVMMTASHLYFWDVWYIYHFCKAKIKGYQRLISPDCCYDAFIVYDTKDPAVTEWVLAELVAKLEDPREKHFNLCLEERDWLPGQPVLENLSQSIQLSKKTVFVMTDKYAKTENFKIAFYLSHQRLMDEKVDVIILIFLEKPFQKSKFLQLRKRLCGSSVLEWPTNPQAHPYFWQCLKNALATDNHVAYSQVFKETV

First: CCCCCNc1nc(N)nc2ccn(Cc3ccc(C(=O)OC)cc3OC)c12 [Example 1, methyl 4-((2-amino-4-(pentylamino)-5H-pyrrolo[3,2-d]pyrimidin-5-yl)methyl)-3-methoxybenzoate]
Second: CCCCCNc1nc(N)nc2ccn(Cc3cc(C(=O)OC)ccc3OC)c12 [Example 4, methyl 3-((2-amino-4-(pentylamino)-5H-pyrrolo[3,2-d]pyrimidin-5-yl)methyl)-4-methoxybenzoate]
The EC50 of the first is higher: 0.01 µM for the first, < 0.005 µM for the second. The second is the more potent here.

First: CCCCCNc1nc(N)nc2ccn(Cc3ccc(C(=O)OCCN(C)C)cc3OC)c12 [Example 2, 2-(dimethylamino)ethyl 4-((2-amino-4-(pentylamino)-5H-pyrrolo[3,2-d]pyrimidin-5-yl)methyl)-3-methoxybenzoate]
Second: CCCCCNc1nc(N)nc2ccn(Cc3ccc(C(=O)OCCOCCN(C)C)cc3OC)c12 [Example 3, 2-(2-(dimethylamino)ethoxy)ethyl 4-((2-amino-4-(pentylamino)-5H-pyrrolo[3,2-d]pyrimidin-5-yl)methyl)-3-methoxybenzoate]
The EC50 of the first is lower: < 0.005 µM for the first, 0.02 µM for the second.

Compared with CCCCCNc1nc(N)nc2ccn(Cc3cc(CC(=O)OC)ccc3OC)c12 [Example 5, methyl 2-(3-((2-amino-4-(pentylamino)-5H-pyrrolo[3,2-d]pyrimidin-5-yl)methyl)-4-methoxyphenyl)acetate], CCCCCNc1nc(N)nc2ccn(Cc3cc(CCC(=O)OCC)ccc3OC)c12 [Example 6, ethyl 3-(3-((2-amino-4-(pentylamino)-5H-pyrrolo[3,2-d]pyrimidin-5-yl)methyl)-4-methoxyphenyl)propanoate] is 3-fold higher in EC50: 0.01 µM for the first, 0.03 µM for the second. The first is the more potent here.

Compared with CCCCCNc1nc(N)nc2ccn(Cc3cc(OCC(=O)OCC(=O)N4CCOCC4)ccc3OC)c12 [Example 8, 2-morpholino-2-oxoethyl 2-(3-((2-amino-4-(pentylamino)-5H-pyrrolo[3,2-d]pyrimidin-5-yl)methyl)-4-methoxyphenoxy)acetate], CCCCCNc1nc(N)nc2ccn(Cc3cc(CC(=O)OCC(=O)N4CCOCC4)ccc3OC)c12 [Example 9, 2-morpholino-2-oxoethyl 2-(3-((2-amino-4-(pentylamino)-5H-pyrrolo[3,2-d]pyrimidin-5-yl)methyl)-4-methoxyphenyl)acetate] is 4-fold lower in EC50: 0.04 µM for the first, 0.01 µM for the second. The second is the more potent here.

Going from CCCCCNc1nc(N)nc2ccn(Cc3ccc(CC(=O)OCC(=O)N4CCOCC4)cc3OC)c12 [Example 10, 2-morpholino-2-oxoethyl 2-(4-((2-amino-4-(pentylamino)-5H-pyrrolo[3,2-d]pyrimidin-5-yl)methyl)-3-methoxyphenyl)acetate] to CCCCCNc1nc(N)nc2ccn(Cc3ccc(CCC(=O)OCC(=O)N4CCOCC4)cc3OC)c12 [Example 11, 2-(morpholin-4-yl)-2-oxoethyl 3-(4-{[2-amino-4-(pentylamino)-5H-pyrrolo[3,2-d]pyrimidin-5-yl]methyl}-3-methoxyphenyl)propanoate], the EC50 rises from 0.006 µM to 0.02 µM (3.3-fold). The first is the more potent here.

Compared with CCCC[C@@H](CO)Nc1nc(N)nc2ccn(Cc3cc(CCC(=O)OCC(=O)N4CCOCC4)ccc3OC)c12 [Example 12, (S)-2-morpholino-2-oxoethyl 3-(3-((2-amino-4-((1-hydroxyhexan-2-yl)amino)-5H-pyrrolo[3,2-d]pyrimidin-5-yl)methyl)-4-methoxyphenyl)propanoate], CCCC[C@@H](CO)Nc1nc(N)nc2ccn(Cc3ccc(CCC(=O)OCC(=O)N4CCOCC4)cc3OC)c12 [Example 15, (S)-2-morpholino-2-oxoethyl 3-(4-((2-amino-4-((1-hydroxyhexan-2-yl)amino)-5H-pyrrolo[3,2-d]pyrimidin-5-yl)methyl)-3-methoxyphenyl)propanoate] is 1.5-fold lower in EC50: 0.03 µM for the first, 0.02 µM for the second. The second is the more potent here.

CCCC[C@@H](CO)Nc1nc(N)nc2ccn(Cc3ccc(CC(=O)OCC(=O)N4CCOCC4)cc3OC)c12 [Example 13, (S)-2-morpholino-2-oxoethyl 2-(4-((2-amino-4-((1-hydroxyhexan-2-yl)amino)-5H-pyrrolo[3,2-d]pyrimidin-5-yl)methyl)-3-methoxyphenyl)acetate] and CCCC[C@@H](CO)Nc1nc(N)nc2ccn(Cc3cc(CC(=O)OCC(=O)N4CCOCC4)ccc3OC)c12 [Example 14, (S)-2-morpholino-2-oxoethyl 2-(3-((2-amino-4-((1-hydroxyhexan-2-yl)amino)-5H-pyrrolo[3,2-d]pyrimidin-5-yl)methyl)-4-methoxyphenyl)acetate] are the same in EC50: 0.01 µM for the first, 0.01 µM for the second.

Compared with CCCCCNc1nc(N)nc2ccn(Cc3cc(/C=C/C(=O)OCC(=O)N4CCOCC4)ccc3OC)c12 [Example 16, 2-(morpholin-4-yl)-2-oxoethyl (2E)-3-(3-{[2-amino-4-(pentylamino)-5H-pyrrolo[3,2-d]pyrimidin-5-yl]methyl}-4-methoxyphenyl)prop-2-enoate], CCCCCNc1nc(N)nc2ccn(Cc3cc(CCC(=O)OCC(=O)N4CCOCC4)ccc3OC)c12 [Example 17, 2-(morpholin-4-yl)-2-oxoethyl 3-(3-{[2-amino-4-(pentylamino)-5H-pyrrolo[3,2-d]pyrimidin-5-yl]methyl}-4-methoxyphenyl)propanoate] is higher in EC50: < 0.005 µM for the first, 0.05 µM for the second. The first is the more potent here.

First: CCCCCNc1nc(N)nc2ccn(Cc3ccc(CC(=O)OCC(=O)OCc4ccccc4)cc3OC)c12 [Example 18, 2-(benzyloxy)-2-oxoethyl 2-(4-{[2-amino-4-(pentylamino)-5H-pyrrolo[3,2-d]pyrimidin-5-yl]methyl}-3-methoxyphenyl)acetate]
Second: CCCCCNc1nc(N)nc2ccn(Cc3ccc(CC(=O)OCC(=O)N(C)C)cc3OC)c12 [Example 20, 2-(dimethylamino)-2-oxoethyl 2-(4-((2-amino-4-(pentylamino)-5H-pyrrolo[3,2-d]pyrimidin-5-yl)methyl)-3-methoxyphenyl)acetate]
The EC50 of the first is 2.5-fold higher: 0.2 µM for the first, 0.08 µM for the second. The second is the more potent here.

First: CCCCCNc1nc(N)nc2ccn(Cc3ccc(CC(=O)OCC(=O)N(CCC)CCC)cc3OC)c12 [Example 19, 2-(dipropylcarbamoyl)methyl 2-(4-{[2-amino-4-(pentylamino)-5H-pyrrolo[3,2-d]pyrimidin-5-yl]methyl}-3-methoxyphenyl)acetate]
Second: CCCCCNc1nc(N)nc2ccn(Cc3ccc(CC(=O)OCCCCN(C)C)cc3OC)c12 [Example 23, 4-(dimethylamino)butyl 2-(4-{[2-amino-4-(pentylamino)-5H-pyrrolo[3,2-d]pyrimidin-5-yl]methyl}-3-methoxyphenyl)acetate]
The EC50 of the first is 29-fold higher: 0.2 µM for the first, 0.007 µM for the second.

Compared with CCCCCNc1nc(N)nc2ccn(Cc3ccc(CC(=O)OCCN4CCN(C)CC4)cc3OC)c12 [Example 21, 2-(4-methylpiperazin-1-yl)ethyl 2-(4-{[2-amino-4-(pentylamino)-5H-pyrrolo[3,2-d]pyrimidin-5-yl]methyl}-3-methoxyphenyl)acetate], CCCCCNc1nc(N)nc2ccn(Cc3ccc(CC(=O)OCCN4CCOCC4)cc3OC)c12 [Example 24, 2-(morpholin-4-yl)ethyl 2-(4-{[2-amino-4-(pentylamino)-5H-pyrrolo[3,2-d]pyrimidin-5-yl]methyl}-3-methoxyphenyl)acetate] is higher in EC50: < 0.005 µM for the first, 0.008 µM for the second.

Going from CCCCCNc1nc(N)nc2ccn(Cc3ccc(CC(=O)OCCO)cc3OC)c12 [Example 22, 2-hydroxyethyl 2-(4-{[2-amino-4-(pentylamino)-5H-pyrrolo[3,2-d]pyrimidin-5-yl]methyl}-3-methoxyphenyl)acetate] to CCCCCNc1nc(N)nc2ccn(Cc3ccc(CC(=O)OCCN4CCNCC4)cc3OC)c12 [Example 25, 2-(piperazin-1-yl)ethyl 2-(4-{[2-amino-4-(pentylamino)-5H-pyrrolo[3,2-d]pyrimidin-5-yl]methyl}-3-methoxyphenyl)acetate], the EC50 rises from < 0.006 µM to 0.03 µM. The first is the more potent here.

CCCCCNc1nc(N)nc2ccn(Cc3cc(OCC(=O)OCCN(C)C)ccc3OC)c12 [Example 26, 2-(dimethylamino)ethyl 2-(3-{[2-amino-4-(pentylamino)-5H-pyrrolo[3,2-d]pyrimidin-5-yl]methyl}-4-methoxyphenoxy)acetate] and CCCCCNc1nc(N)nc2ccn(Cc3cc(OCC(=O)OCCN4CCN(C)CC4)ccc3OC)c12 [Example 29, 2-(4-methylpiperazin-1-yl)ethyl 2-(3-{[2-amino-4-(pentylamino)-5H-pyrrolo[3,2-d]pyrimidin-5-yl]methyl}-4-methoxyphenoxy)acetate] are within 1.5-fold of each other in EC50: 0.3 µM for the first, 0.2 µM for the second.

CCCCCNc1nc(N)nc2ccn(Cc3cc(OCC(=O)OCCN4CCNCC4)ccc3OC)c12 [Example 27, 2-(piperazin-1-yl)ethyl 2-(3-{[2-amino-4-(pentylamino)-5H-pyrrolo[3,2-d]pyrimidin-5-yl]methyl}-4-methoxyphenoxy)acetate] and CCCCCNc1nc(N)nc2ccn(Cc3cc(OCC(=O)OCCN4CCOCC4)ccc3OC)c12 [Example 28, 2-(morpholin-4-yl)ethyl 2-(3-{[2-amino-4-(pentylamino)-5H-pyrrolo[3,2-d]pyrimidin-5-yl]methyl}-4-methoxyphenoxy)acetate] are within 1.5-fold of each other in EC50: 0.5 µM for the first, 0.4 µM for the second.

Compared with CCCC[C@@H](CO)Nc1nc(N)nc2ccn(Cc3cc(CN4CCNCC4)ccc3OC)c12 [Example 30, (S)-2-((2-amino-5-(2-methoxy-5-(piperazin-1-ylmethyl)benzyl)-5H-pyrrolo[3,2-d]pyrimidin-4-yl)amino)hexan-1-ol], CCCCCNc1nc(N)nc2ccn(Cc3cc(CN4CCNCC4)ccc3OC)c12 [Example 31, 5-(2-methoxy-5-(piperazin-1-ylmethyl)benzyl)-N4-pentyl-5H-pyrrolo[3,2-d]pyrimidine-2,4-diamine] is 4-fold lower in EC50: 0.08 µM for the first, 0.02 µM for the second. The second is the more potent here.

CCCCCNc1nc(N)nc2ccn(Cc3ccc(CN4CCNCC4)cc3OC)c12 [Example 32, 5-(2-methoxy-4-(piperazin-1-ylmethyl)benzyl)-N4-pentyl-5H-pyrrolo[3,2-d]pyrimidine-2,4-diamine] was tested, and the EC50 was < 0.005 µM.
